Source: PubChem BioAssay (NCI)
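Five compound concentrations were applied to cells in 96-well plates for 48 hours; endpoints were derived by simple linear interpolation of the resulting dose-response curve. At the GI50, growth is halved. TGI denotes the concentration required for complete inhibition of growth.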

Tests used:
Assay in all cases: NCI anticancer screen, dose series, 48 h
EKVX NSCLC = test system: EKVX NSCLC
UO-31 renal = test system: UO-31 renal
MCF7 breast = test system: MCF7 breast
SW-620 colon = test system: SW-620 colon
RXF 393 renal = test system: RXF 393 renal
UACC-62 melanoma = test system: UACC-62 melanoma
HCT-15 colon = test system: HCT-15 colon
SK-MEL-28 melanoma = test system: SK-MEL-28 melanoma
BT-549 breast = test system: BT-549 breast
HCC-2998 colon = test system: HCC-2998 colon
SF-539 CNS = test system: SF-539 CNS
IGROV1 ovarian = test system: IGROV1 ovarian
SNB-75 CNS = test system: SNB-75 CNS
HS 578T breast = test system: HS 578T breast
CCRF-CEM leukemia = test system: CCRF-CEM leukemia
OVCAR-8 ovarian = test system: OVCAR-8 ovarian
UACC-257 melanoma = test system: UACC-257 melanoma
MOLT-4 leukemia = test system: MOLT-4 leukemia
SK-MEL-2 melanoma = test system: SK-MEL-2 melanoma
SR leukemia = test system: SR leukemia
A549 NSCLC = test system: A549 NSCLC
HOP-92 NSCLC = test system: HOP-92 NSCLC
SN12C renal = test system: SN12C renal
U251 CNS = test system: U251 CNS
SNB-19 CNS = test system: SNB-19 CNS
SK-OV-3 ovarian = test system: SK-OV-3 ovarian
HOP-62 NSCLC = test system: HOP-62 NSCLC
NCI-H460 lung = test system: NCI-H460 lung
NCI-H226 lung = test system: NCI-H226 lung
HL-60(TB) leukemia = test system: HL-60(TB) leukemia
CAKI-1 renal = test system: CAKI-1 renal
ACHN renal = test system: ACHN renal
SK-MEL-5 melanoma = test system: SK-MEL-5 melanoma
OVCAR-5 ovarian = test system: OVCAR-5 ovarian
PC-3 prostate = test system: PC-3 prostate
HCT-116 colon = test system: HCT-116 colon
RPMI-8226 leukemia = test system: RPMI-8226 leukemia
MDA-MB-231 breast = test system: MDA-MB-231 breast
TK-10 renal = test system: TK-10 renal
MALME-3M melanoma = test system: MALME-3M melanoma
NCI-H23 lung = test system: NCI-H23 lung
T-47D breast = test system: T-47D breast
A498 renal = test system: A498 renal
786-0 renal = test system: 786-0 renal
NCI-H522 lung = test system: NCI-H522 lung
K-562 leukemia = test system: K-562 leukemia
OVCAR-4 ovarian = test system: OVCAR-4 ovarian
DU-145 prostate = test system: DU-145 prostate
KM12 colon = test system: KM12 colon
HT29 colon = test system: HT29 colon
NCI/ADR-RES ovarian = test system: NCI/ADR-RES ovarian
COLO 205 colon = test system: COLO 205 colon
SF-295 CNS = test system: SF-295 CNS
M14 melanoma = test system: M14 melanoma
SF-268 CNS = test system: SF-268 CNS
LOX IMVI melanoma = test system: LOX IMVI melanoma
OVCAR-3 ovarian = test system: OVCAR-3 ovarian
MDA-MB-435 = test system: MDA-MB-435

Cc1cn(-c2cc(NC(=O)c3cncc(C#Cc4cnc5ccc(O[C@@H]6CCOC6)nn45)c3)cc(C(F)(F)F)c2)cn1
GI50 (EKVX NSCLC): 257 nM
TGI (EKVX NSCLC): 1270 nM
GI50 (UO-31 renal): 1450 nM
TGI (UO-31 renal): 3550 nM
GI50 (MCF7 breast): 72.9 nM
TGI (MCF7 breast): 717 nM
GI50 (SW-620 colon): 157 nM
TGI (SW-620 colon): 557 nM
GI50 (RXF 393 renal): 215 nM
TGI (RXF 393 renal): 535 nM
GI50 (UACC-62 melanoma): 204 nM
TGI (UACC-62 melanoma): 949 nM
GI50 (HCT-15 colon): 687 nM
TGI (HCT-15 colon): 2370 nM
GI50 (SK-MEL-28 melanoma): 312 nM
TGI (SK-MEL-28 melanoma): 1090 nM
GI50 (BT-549 breast): 625 nM
TGI (BT-549 breast): 1730 nM
GI50 (HCC-2998 colon): 320 nM
TGI (HCC-2998 colon): 1500 nM
GI50 (SF-539 CNS): 39.8 nM
TGI (SF-539 CNS): 231 nM
GI50 (IGROV1 ovarian): 103 nM
TGI (IGROV1 ovarian): 534 nM
GI50 (SNB-75 CNS): < 43.6 nM
TGI (SNB-75 CNS): 226 nM
GI50 (HS 578T breast): 124 nM
TGI (HS 578T breast): 559 nM
GI50 (CCRF-CEM leukemia): 48.6 nM
GI50 (OVCAR-8 ovarian): 257 nM
TGI (OVCAR-8 ovarian): 1140 nM
GI50 (UACC-257 melanoma): 467 nM
TGI (UACC-257 melanoma): 2750 nM
GI50 (MOLT-4 leukemia): 64.2 nM
TGI (MOLT-4 leukemia): 678 nM
GI50 (SK-MEL-2 melanoma): 210 nM
TGI (SK-MEL-2 melanoma): 512 nM
GI50 (SR leukemia): 52.7 nM
TGI (SR leukemia): 936 nM
GI50 (A549 NSCLC): 206 nM
TGI (A549 NSCLC): 958 nM
GI50 (HOP-92 NSCLC): 22.8 nM
TGI (HOP-92 NSCLC): 96.3 nM
GI50 (SN12C renal): 85.6 nM
TGI (SN12C renal): 601 nM
GI50 (U251 CNS): 246 nM
TGI (U251 CNS): 1020 nM
GI50 (SNB-19 CNS): 261 nM
TGI (SNB-19 CNS): 1750 nM
GI50 (SK-OV-3 ovarian): 392 nM
TGI (SK-OV-3 ovarian): 2230 nM
GI50 (HOP-62 NSCLC): 183 nM
TGI (HOP-62 NSCLC): 883 nM
GI50 (NCI-H460 lung): 144 nM
TGI (NCI-H460 lung): 699 nM
GI50 (NCI-H226 lung): 56.6 nM
TGI (NCI-H226 lung): 454 nM
GI50 (HL-60(TB) leukemia): 181 nM
TGI (HL-60(TB) leukemia): 613 nM
GI50 (CAKI-1 renal): 495 nM
TGI (CAKI-1 renal): 1510 nM
GI50 (ACHN renal): 689 nM
TGI (ACHN renal): 2770 nM
GI50 (SK-MEL-5 melanoma): 615 nM
TGI (SK-MEL-5 melanoma): 1710 nM
GI50 (OVCAR-5 ovarian): 268 nM
TGI (OVCAR-5 ovarian): 1670 nM
GI50 (PC-3 prostate): 280 nM
TGI (PC-3 prostate): 4210 nM
GI50 (HCT-116 colon): 79.7 nM
TGI (HCT-116 colon): 616 nM
GI50 (RPMI-8226 leukemia): 397 nM
GI50 (MDA-MB-231 breast): 74 nM
TGI (MDA-MB-231 breast): 403 nM
GI50 (TK-10 renal): 362 nM
TGI (TK-10 renal): 1560 nM
GI50 (MALME-3M melanoma): 164 nM
TGI (MALME-3M melanoma): 693 nM
GI50 (NCI-H23 lung): 190 nM
TGI (NCI-H23 lung): 784 nM
GI50 (T-47D breast): 442 nM
TGI (T-47D breast): 4260 nM
GI50 (A498 renal): 504 nM
TGI (A498 renal): 1090 nM
GI50 (786-0 renal): 286 nM
TGI (786-0 renal): 936 nM
GI50 (NCI-H522 lung): 111 nM
TGI (NCI-H522 lung): 330 nM
TGI (K-562 leukemia): 3250 nM
GI50 (OVCAR-4 ovarian): 155 nM
TGI (OVCAR-4 ovarian): 1000 nM
GI50 (DU-145 prostate): 222 nM
TGI (DU-145 prostate): 1580 nM
TGI (KM12 colon): 1790 nM
GI50 (HT29 colon): 188 nM
TGI (HT29 colon): 947 nM
GI50 (NCI/ADR-RES ovarian): 6460 nM
TGI (NCI/ADR-RES ovarian): 23100 nM
GI50 (COLO 205 colon): 75.7 nM
TGI (COLO 205 colon): 213 nM
GI50 (SF-295 CNS): 355 nM
TGI (SF-295 CNS): 2410 nM
GI50 (M14 melanoma): 138 nM
TGI (M14 melanoma): 353 nM
GI50 (SF-268 CNS): 191 nM
TGI (SF-268 CNS): 1030 nM
GI50 (LOX IMVI melanoma): 85.6 nM
TGI (LOX IMVI melanoma): 535 nM
GI50 (OVCAR-3 ovarian): 217 nM
TGI (OVCAR-3 ovarian): 849 nM
GI50 (MDA-MB-435): 144 nM
TGI (MDA-MB-435): 714 nM
